The text below walks through data of PubChem BioAssay AID1648 (Sanford-Burnham Center for Chemical Genomics, 2009).

As a reminder, the Kd is a measure of binding affinity in units of concentration.

The source made the active and inactive calls. No rule for the calls is given here. Some results are limits rather than exact numbers.

In the assay the target is Serine/threonine-protein kinase mTOR (Homo sapiens) (UniProt P42345). Description: mTOR FRB domain ligand binding – biophysical, NMR (AID 1648). To be noted: NMR binding to FRB domain, chemical shift.
Sequence of Serine/threonine-protein kinase mTOR (Homo sapiens) (P42345 2015-2114): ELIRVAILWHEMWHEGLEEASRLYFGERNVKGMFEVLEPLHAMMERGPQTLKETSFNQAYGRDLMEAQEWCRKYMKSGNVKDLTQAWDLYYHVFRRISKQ

As to `CCOc1ccc(-c2c(=O)n(O)c3ccccc3[n+]2[O-])cc1`, the Kd was > 4 mM (inactive).
With `Cn1c(SCC(N)=O)nc2ccccc2c1=O`, the Kd is > 4 mM (inactive).
In the case of `COC(=O)c1cc(-c2c(C)nn(-c3ccccc3)c2C)n[nH]1`, the Kd was > 4 mM (inactive).
`O=C1NC(=O)/C(=C/c2ccc(O)cc2)N1`: the Kd was > 4 mM (inactive).
In the case of `NCCc1c[nH]c2ccccc12`, the Kd is > 4 mM (inactive).
For `O=C1CCCN1C(=O)CN1CCOCC1`, the Kd is > 4 mM (inactive).
Take `O=c1c2c(nc3nc(COc4ccccc4)[nH]n13)CCC2`: the Kd is > 4 mM (inactive).
For `O=C(O)CC12CC3CC(CC(O)(C3)C1)C2`, the Kd is > 4 mM (inactive).
Regarding `O=C(O)/C=C(\CC(=O)O)C(=O)O`, the Kd is > 4 mM (inactive).
Turning to `O=C(O)CCc1ccc2c(c1)OCO2`, the Kd was > 4 mM (inactive).
On to `O=C(NC(=S)NC1CCS(=O)(=O)C1)c1ccccc1` (stereo unspecified), for which the Kd is > 4 mM (inactive).
`CN1CCC(O)N1C(=O)c1ccccc1O` (stereo unspecified): the Kd is > 4 mM (inactive).
For the compound `Nc1ccccc1C(=O)CC(N)C(=O)O` (stereo unspecified), the Kd was > 4 mM (inactive).
Then `CCC(C)C(=O)O[C@@H]1C[C@@]2(C)[C@H](c3ccoc3)OC(=O)CC23OC2(C)O[C@]14[C@]1(C)[C@@H](CC(=O)OC)C5(C)CC1(O)[C@](O)(C5OC(=O)C1(C)OC1C)[C@@H](OC(C)=O)[C@]34O2` (stereo partly specified), with > 4 mM (inactive).
To `CC(C)C(C)/C=C/C(C)[C@H]1CCC2C3=CCC4CC(=O)CC[C@]4(C)C3CC[C@@]21C` (stereo partly specified) belongs > 4 mM (inactive); to `COc1ccccc1-c1noc(-c2ccco2)n1`, > 4 mM (inactive); to `CSc1nc2[nH]ncc2c(=O)[nH]1`, > 4 mM (inactive).
Regarding `O=c1c(-c2cccs2)[n+]([O-])c2ccccc2n1O`, the Kd was > 4 mM (inactive).
On to `CC(=O)N1CN(C(C)=O)CN(C(C)=O)C1`, for which the Kd was > 4 mM (inactive).
Turning to `COc1c2ccccc2nc2occc12`, the Kd was > 4 mM (inactive).
To `Cc1cccc(-n2c(N)cc(=O)[nH]c2=S)c1C` belongs > 4 mM (inactive); to `Cc1cc(N)ccc1NC(=O)c1ccco1`, > 4 mM (inactive).
Then `O=c1ccn(Cc2ccccc2)c(=O)n1Cc1ccccc1`, with > 4 mM (inactive).
`O=C(c1ccccc1)N1CCN(c2ccccc2F)CC1`: the Kd was > 4 mM (inactive).
`NC(C(=O)O)C(O)c1ccccc1` (stereo unspecified): the Kd is > 4 mM (inactive).
`Cc1cc(=O)n(CC(C)C)c(O)c1C#N`: the Kd was > 4 mM (inactive).
Then `O=C(O)c1cc2ccccc2[nH]1`, with > 4 mM (inactive); and `Cc1ccc(OCC(=O)n2cnnc2N)c(C)c1`, with > 4 mM (inactive); and `Cc1ccc(CNc2ccc(O)cc2)cc1`, with > 4 mM (inactive).
To `NC1CCN(Cc2ccccc2)CC1` belongs > 4 mM (inactive); to `CC1NC(C(=O)O)Cc2c1[nH]c1ccccc21` (stereo unspecified), > 4 mM (inactive); to `O=C1CN(C(=O)c2ccccc2)c2ccccc2N1`, > 4 mM (inactive).
Consider `COc1ccc2c(c1)O[C@H]1c3ccc(OC)cc3OC[C@@H]21`, for which the Kd was > 4 mM (inactive).
For `CCOC(=O)c1csc(N)n1`, the Kd is > 4 mM (inactive).
Turning to `O=C(Nc1nnc(-c2cccnc2)o1)c1ccccc1F`, the Kd was > 4 mM (inactive).
Then `COc1cc(O)c2c(=O)c(O)c(-c3ccc(O)c(O)c3)oc2c1`, with > 4 mM (inactive); and `C=CCSCC=C`, with > 4 mM (inactive); and `COc1ccc(-c2cc3nc4n(c(=O)c3s2)CCC4)cc1`, with > 4 mM (inactive).
To `CCOc1ccc(C(=O)c2ccc(OC)c(O)c2O)cc1` belongs > 4 mM (inactive).
As to `CC1=NN(c2ccc(N)cc2)C(=O)C1`, the Kd is > 4 mM (inactive).
Turning to `COC(=O)c1cccnc1Oc1ccccc1`, the Kd was > 4 mM (inactive).
